Key:
[1] = system: myocardial infarct size in IR injury; set-up: protection against IR injury (TTC stained cross-sections): dose or concentration left out as unconfirmed; conditions: for protection against IR injury (TTC stained cross-sections): single IV bolus at reperfusion
[2] = target: heart ATP synthase (complex V) (Mus musculus, UniProt P56480); assay: respiration of mitochondria isolated from mouse heart (ATP synthase / complex V inhibition)
[3] = system: electron flow through the ETC (Complex I, II, IV); assay: electron flow through the ETC, OCR of isolated mouse heart mitochondria; type: biochemical

SMILES: O=C(O)CCC(=O)C(=O)O [α-KG, α-ketoglutarate]
- reduction of infarct size ([1]; mouse, in vivo): about 70%
- protection in the presence of the HIF-1 inhibitor echinomycin ([1]; mouse, in vivo, iv): fully protective
- complex V activity ([2]; […]): inhibits
- state 3 respiration ([2]; initiated by 2 mM ADP): decreases
- electron flow through the ETC ([3]; isolated mouse heart mitochondria): does not affect
- Complex I, Complex II, or Complex IV respiration ([3]; sequential rotenone, succinate, antimycin A, TMPD): No difference

SMILES: O=C(O)CCC(=O)O [succinate]
- protection against IR injury (TTC stained cross-sections) [1]: does not

SMILES: CC(C)(COP(=O)(O)OP(=O)(O)OC[C@H]1O[C@@H](n2cnc3c(N)ncnc32)[C@H](O)[C@@H]1OP(=O)(O)O)[C@@H](O)C(=O)NCCC(=O)NCCSC(=O)CCC(=O)O [succinyl-CoA]
- protection against IR injury (TTC stained cross-sections) [1]: significant protection

SMILES: CC[C@H]1/C=C/C=C/C[C@@H](C)[C@H](O)[C@@](C)(O)C(=O)[C@@H](C)[C@H](O)[C@@H](C)C(=O)[C@@H](C)[C@H](O)[C@@H](C)/C=C/C(=O)O[C@@H]2[C@H](C)[C@H](CC1)O[C@]1(CC[C@H](C)[C@H](C[C@@H](C)O)O1)[C@H]2C [oligomycin]
- toxicity ([1]; 5 μM, administered at the time of reperfusion): toxic
- myocardial infarct size ([1]; lower doses (e.g., 10 nM) given at reperfusion): significantly reduce myocardial infarct size
